Experimental data: patent US20120270819A1, “USE OF COMPOUNDS WITH SGLT-1/SGLT-2 INHIBITOR ACTIVITY FOR PRODUCING MEDICAMENTS FOR TREATMENT OF BONE DISEASE” (SANOFI, priority 2009, published 2012)

biological target: T1, human sodium-dependent glucose transporter 1 (SGLT1, SLC5A1) (Homo sapiens, UniProt P13866); assay: Inhibition of methyl α-D-glucopyranoside uptake in CHO-TRex-hSGLT1 cells; format: cell-based; details: recombinant SGLT1; read-out: IC50 SGLT 1
T1 construct: Bases 11 to 2005 correspond to the complete coding region of human SGLT1; expressed in transfected cells; host or cells: CHO-TRex cells (Invitrogen), pcDNA4/TO vector, tetracycline-induced
T1 sequence (P13866 1-664): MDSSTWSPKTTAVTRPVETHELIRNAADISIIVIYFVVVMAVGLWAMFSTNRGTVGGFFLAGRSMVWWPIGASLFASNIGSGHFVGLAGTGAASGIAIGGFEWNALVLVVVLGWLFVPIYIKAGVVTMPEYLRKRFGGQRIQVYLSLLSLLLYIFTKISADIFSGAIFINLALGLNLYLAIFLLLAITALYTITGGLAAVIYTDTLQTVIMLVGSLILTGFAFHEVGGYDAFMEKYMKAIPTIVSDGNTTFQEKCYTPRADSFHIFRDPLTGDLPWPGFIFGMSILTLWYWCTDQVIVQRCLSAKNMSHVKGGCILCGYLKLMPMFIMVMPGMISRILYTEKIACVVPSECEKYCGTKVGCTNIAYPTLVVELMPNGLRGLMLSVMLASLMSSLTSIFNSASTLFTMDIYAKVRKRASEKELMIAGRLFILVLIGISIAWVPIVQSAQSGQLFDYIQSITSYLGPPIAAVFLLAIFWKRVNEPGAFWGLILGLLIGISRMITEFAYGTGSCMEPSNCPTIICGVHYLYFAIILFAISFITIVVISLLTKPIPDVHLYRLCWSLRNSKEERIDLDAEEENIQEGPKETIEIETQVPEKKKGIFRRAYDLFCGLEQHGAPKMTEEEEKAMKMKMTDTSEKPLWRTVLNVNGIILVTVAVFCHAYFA
Excerpt: A further method for testing the activity of the compounds is the inhibition of the transport activity of the human sodium-dependent glucose transporter 1 (SGLT1, SLC5A1) in vitro:
1. Cloning of an Expression Vector for Human SGLT1
The cDNA for human SGLT1 was introduced into the pcDNA4/TO vector (Invitrogen) by standard methods of molecular biology as described in Sambrook et al. (Sambrook et al., Molecular Cloning, A Laboratory Manual, 2nd Edition). […] Bases 11 to 2005 correspond to the complete coding region of human SGLT1.
2. Preparation of a Recombinant Cell Line with Inducible Expression of Human SGLT1
The expression vector for human SGLT1 was introduced into CHO-TRex cells (Invitrogen) by means of FuGene6 lipofection (Roche). To select single cell clones, 600 μg/ml Zeocin (Invitrogen) was added to the cell culture medium (Nutrient Mixture F-12 (Ham), (Invitrogen) supplemented with 10% fetal calf serum (BD Biosciences), 10 μg/ml blasticidin S(CN Biosciences), 100 units/ml penicillin, 100 units/ml streptomycin). The functionality of the single cell clones resulting from the selection was tested via their uptake activity for radiolabeled methyl α-D-glucopyranoside. The cell clone with the greatest uptake activity for methyl α-D-glucopyranoside, referred to as CHO-TRex-hSGLT1 hereinafter, was selected for further experiment, and cultivation was continued in the presence of 600 μg/ml of zeocin.
3. Measurement of the Inhibitory Effect of Test Substances on the Uptake of Methyl-D-qlucopyranoside (-MDG)
CHO-TRex-hSGLT1 cells were seeded in a concentration of 50 000 cells per well in Cytostar-T scintillating 96-well plates (Amersham Biosciences) in cell culture medium and cultivated for 24 h. Expression of the recombinant human SGLT1 was induced by adding 1 μg/ml tetracyclin for a further 24 h. For α-MDG uptake experiments, the cells were washed with PBS and then starved (PBS supplemented with 10% fetal calf serum) at 37° C. for one hour. […]
The final concentration of methyl α-D-glucopyranoside in the assay was 50 μM. After an incubation time of 30 min at room temperature, the reaction was stopped by adding 50 μl/well of 10 mM methyl α-D-glucopyranoside in transport assay buffer (4° C.), and the radioactivity uptake by the cells was determined in a MicroBeta Scintillation Microplate Reader (Wallac). The half-maximum inhibitory effect of the test substances (IC50) was determined in the following way: • 1. […] This is the measurement in the absence of substance, measured in sodium-containing transport assay buffer. • 2. […] This is the measurement in the absence of substance, measured in sodium-free transport assay buffer (140 mM choline chloride, 2 mM potassium chloride, 1 mM magnesium chloride, 1 mM calcium chloride, 10 mM HEPES/Tris, pH7.5). • 3. […]

`COc1ccc(Cc2c(OC3OC(CO)C(F)C(O)C3O)n[nH]c2C(F)(F)F)cc1` (stereo not shown) [Example 5 of formula II] was tested. Which IC50 did it give?
The IC50 was 0.029 µM.

How did the IC50 turn out when `COc1ccc(Cc2ccccc2OC2OC(CO)C(F)C(O)C2O)cc1` (stereo not shown) [Example 1 of formula III] was run?
The IC50 was 0.77 µM.

How did the IC50 turn out when `CC(C)c1[nH]nc(OC2OC(CO)C(F)C(O)C2O)c1Cc1ccc(CCCC(=O)NC(CO)(CO)CO)cc1` (stereo not shown) [Example 21 of formula I] was run?
Its IC50 is 0.027 µM.

How did the IC50 turn out when `CCc1ccc(Cc2ccccc2OC2OC(CO)C(F)C(O)C2O)cc1` (stereo not shown) [Example 20 of formula III] was run?
Its IC50 is 0.32 µM.
